For this experiment, the target named is T1, FAK (Homo sapiens, UniProt Q05397).
T1 construct: homozygous knock-in of a HiBiT tag (Promega Corporation, Madison, WI) to the C-terminus of the FAK gene in its natural genomic locus; endogenous in cells; host or cells: JHH-4-FAK-HiBiT clone d01 (CRISPR-Cas9 knock-in at the endogenous locus)
Description: FAK-HiBiT Degradation Assay. It counts as cell-based. The note with it: for FAK HiBiT Ymin: lower limit of the four parameter fit (value A), Ymax derived using DMSO control, JHH-4-FAK-HiBiT cells, two hours; for DC50: read-out: FAK HiBiT EC50. From the text:
To generate JHH-4-FAK-HiBiT cells for the FAK degradation assay, JHH-4 cells (Japanese Collection of Research Biosources Cell Bank, Japan) were transfected with ribonucleoprotein reagents to introduce, by CRISPR-Cas9 editing, the homozygous knock-in of a HiBiT tag (Promega Corporation, Madison, WI) to the C-terminus of the FAK gene in its natural genomic locus. Clonal cell populations were established by expanding single cells after CRISPR-Cas9 editing, with a clonal cell line named JHH-4-FAK-HiBiT clone d01 confirmed by next generation DNA sequencing to contain the expected HiBiT edited FAK gene and was selected for FAK degradation screening. Cells were selected and maintained in complete DMEM media (DMEM, 10% Heat Inactivated FBS, and Non-Essential Amino Acids at 37° C. and 5% CO2). Cells were passaged every 3-4 days by reseeding 0.5×10^6 cells in a T75 flask.
Cells were dispensed into 384-well white plates (Corning #3570, NY) that were pre-spotted with compounds using an acoustic dispenser (Echo acoustic transfer system, Beckman Coulter Life Sciences, Carlsbad, CA) as a 10-point dose response curve with a 3-fold dilution starting at 1 μM and including a DMSO control. Twenty-five microliters of media containing 2000 JHH-4-FAK-HiBiT Clone d01 cells was dispensed per well. Assay plates were incubated at 37° C. with 5% CO2 for two hours. After incubation, 25 μL of Nano-Glo HiBiT Lytic Reagent Working Solution (Promega Corporation, Madison, WI) was added to each well and incubated at room temperature for 10 minutes protected from light. After 10 minutes, luminescence was read on a PHERAstar luminometer (BMG Labtech, Cary, NC).
To determine the half-maximal effective concentration (EC50) values for FAK-HiBIT degradation, a four parameter logistic model was used: (Sigmoidal Dose-Response Model)(FIT=(A+((B−A)/1+((C/x)^D)))) where C is the inflection point (EC50), D is the Hill slope, and A and B are the low and high limits of the fit respectively). The lower limit of the fit (value A) is referred to as Ymin. The maximum limit constraint, Ymax, was derived using DMSO control. The curves were processed and evaluated using Dotmatics Atlas (Insightful Science, LLC, Boston, MA).
(With HiBiT, luminescence reflects the tagged protein that the partner subunit can reach.)

Setting [1] is: JHH-4-FAK-HiBiT clone d01 cells, two hours incubation, 10-point dose response, 3-fold dilution starting at 1 μM, Nano-Glo HiBiT luminescence.

As usually defined, the EC50 is the midpoint of the concentration-response curve.

T1 sequence (Q05397 whole entry): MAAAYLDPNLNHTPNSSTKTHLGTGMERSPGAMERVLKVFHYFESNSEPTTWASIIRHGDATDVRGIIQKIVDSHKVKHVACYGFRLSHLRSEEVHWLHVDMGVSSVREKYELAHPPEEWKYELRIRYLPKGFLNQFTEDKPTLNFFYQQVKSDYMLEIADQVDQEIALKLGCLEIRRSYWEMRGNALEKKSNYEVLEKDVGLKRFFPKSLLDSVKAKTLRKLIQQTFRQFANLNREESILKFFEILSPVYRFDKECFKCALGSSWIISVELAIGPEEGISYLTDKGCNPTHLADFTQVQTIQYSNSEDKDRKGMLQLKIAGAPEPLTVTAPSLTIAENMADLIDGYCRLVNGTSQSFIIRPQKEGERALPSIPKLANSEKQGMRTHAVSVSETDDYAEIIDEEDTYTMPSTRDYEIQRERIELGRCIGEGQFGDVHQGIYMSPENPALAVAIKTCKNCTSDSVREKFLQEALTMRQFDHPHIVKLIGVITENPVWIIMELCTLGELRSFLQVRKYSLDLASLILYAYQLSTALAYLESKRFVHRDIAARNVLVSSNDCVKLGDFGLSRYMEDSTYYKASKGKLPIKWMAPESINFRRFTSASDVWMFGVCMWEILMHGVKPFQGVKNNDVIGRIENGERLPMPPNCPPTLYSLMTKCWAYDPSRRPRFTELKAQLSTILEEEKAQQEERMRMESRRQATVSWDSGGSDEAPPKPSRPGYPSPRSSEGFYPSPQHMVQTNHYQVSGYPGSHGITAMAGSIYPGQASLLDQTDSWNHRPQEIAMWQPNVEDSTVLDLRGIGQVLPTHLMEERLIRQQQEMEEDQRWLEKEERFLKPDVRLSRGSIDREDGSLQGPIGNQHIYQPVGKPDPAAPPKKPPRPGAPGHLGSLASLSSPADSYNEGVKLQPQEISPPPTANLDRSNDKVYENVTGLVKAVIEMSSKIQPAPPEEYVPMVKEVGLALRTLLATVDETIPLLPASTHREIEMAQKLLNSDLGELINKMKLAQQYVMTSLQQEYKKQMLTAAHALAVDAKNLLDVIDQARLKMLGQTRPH

Turning to `CN(C)c1cc(-c2ncc(C#N)cc2Cl)c2ccn(Cc3ccc4c(c3)CN(C3CCC(=O)NC3=O)C4=O)c2n1` (stereo not shown) [Example 13, 5-chloro-6-(6-(dimethylamino)-1-((2-(2,6-dioxopiperidin-3-yl)-1-oxoisoindolin-5-yl)methyl)-1H-pyrrolo[2,3-b]pyridin-4-yl)nicotinonitrile], the “FAK HiBiT Ymin” value is 4.03. For the same compound, the EC50 under setting [1] was found to be 7.86 nM.

In the case of `CN(C)c1cc(-c2ccc(C#N)cc2Cl)c2ncn(Cc3ccc4c(c3)CN(C3CCC(=O)NC3=O)C4=O)c2n1` (stereo not shown) [Example 18], the “FAK HiBiT Ymin” value was found to be 4.01. In addition, the DC50 under setting [1] worked out at 8.37 nM.

Take `CN(C)c1nc(-c2ccc(C#N)cc2Cl)c2ccn(Cc3ccc4c(c3)CN(C3CCC(=O)NC3=O)C4=O)c2n1` (stereo not shown) [Example 27, 3-chloro-4-(2-(dimethylamino)-7-((2-(2,6-dioxopiperidin-3-yl)-1-oxoisoindolin-5-yl)methyl)-7H-pyrrolo[2,3-d]pyrimidin-4-yl)benzonitrile]: the “FAK HiBiT Ymin” value is given as 2.64. Under setting [1], the DC50 is 8.68 nM.

Take `N#Cc1ccc(-c2cc(N3CCC3)nc3c2cnn3Cc2ccc3c(c2)CN(C2CCC(=O)NC2=O)C3=O)c(Cl)c1` (stereo not shown) [Example 58, 4-[6-(azetidin-1-yl)-1-{[2-(2,6-dioxopiperidin-3-yl)-1-oxo-2,3-dihydro-1H-isoindol-5-yl]methyl}-1H-pyrazolo[3,4-b]pyridin-4-yl]-3-chlorobenzonitrile]: the “FAK HiBiT Ymin” value turned out to be 7.90. Besides, the DC50 under setting [1] came out at 3.43 nM.

For the compound `Cc1nn(Cc2ccc3c(c2)CN(C2CCC(=O)NC2=O)C3=O)c2nc(N3CCC3)cc(-c3ccc(C#N)cc3Cl)c12` (stereo not shown) [Example 60, 4-[6-(azetidin-1-yl)-1-{[2-(2,6-dioxopiperidin-3-yl)-1-oxo-2,3-dihydro-1H-isoindol-5-yl]methyl}-3-methyl-1H-pyrazolo[3,4-b]pyridin-4-yl]-3-chlorobenzonitrile], the “FAK HiBiT Ymin” value is recorded as 9.10. Moreover, the DC50 under setting [1] amounted to 3.57 nM.

Turning to `N#Cc1ccc(-c2cc(N3CCC3)nc3c2cnn3Cc2ccc3c(c2)CN(C2CCC(=O)NC2=O)C3=O)c(F)c1` (stereo not shown) [Example 62, 4-[6-(azetidin-1-yl)-1-{[2-(2,6-dioxopiperidin-3-yl)-1-oxo-2,3-dihydro-1H-isoindol-5-yl]methyl}-1H-pyrazolo[3,4-b]pyridin-4-yl]-3-fluorobenzonitrile], the “FAK HiBiT Ymin” value came out at 12.88. Also, the DC50 under setting [1] was found to be 3.92 nM.

In the case of `CC(C)Nc1cc(-c2ccc(C#N)cc2Cl)c2cnn(Cc3ccc4c(c3)CN(C3CCC(=O)NC3=O)C4=O)c2n1` (stereo not shown) [Example 68, 3-chloro-4-(1-{[2-(2,6-dioxopiperidin-3-yl)-1-oxo-2,3-dihydro-1H-isoindol-5-yl]methyl}-6-[(propan-2-yl)amino]-1H-pyrazolo[3,4-b]pyridin-4-yl)benzonitrile], the “FAK HiBiT Ymin” value came out at 15.10. Under setting [1], the DC50 came to 5.19 nM.

As to `N#Cc1ccc(-c2cc(N3CCC3)nc3c2c(Cl)nn3Cc2ccc3c(c2)CN(C2CCC(=O)NC2=O)C3=O)c(Cl)c1` (stereo not shown) [Example 70, 4-[6-(azetidin-1-yl)-3-chloro-1-{[2-(2,6-dioxopiperidin-3-yl)-1-oxo-2,3-dihydro-1H-isoindol-5-yl]methyl}-1H-pyrazolo[3,4-b]pyridin-4-yl]-3-chlorobenzonitrile], the “FAK HiBiT Ymin” value turned out to be 13.38. Besides, the DC50 under setting [1] was 5.6 nM.

`N#Cc1ccc(-c2cc(N3CC(F)C3)nc3c2cnn3Cc2ccc3c(c2)CN(C2CCC(=O)NC2=O)C3=O)c(F)c1` (stereo not shown) [Example 71, 4-(1-{[2-(2,6-dioxopiperidin-3-yl)-1-oxo-2,3-dihydro-1H-isoindol-5-yl]methyl}-6-(3-fluoroazetidin-1-yl)-1H-pyrazolo[3,4-b]pyridin-4-yl)-3-fluorobenzonitrile]: the “FAK HiBiT Ymin” value came out at 11.11. For the same compound, the DC50 under setting [1] turned out to be 5.67 nM.

In the case of `N#Cc1cnc(-c2cc(N3CCC3)nc3c2cnn3Cc2ccc3c(c2)CN(C2CCC(=O)NC2=O)C3=O)c(F)c1` (stereo not shown) [Example 84, 6-[6-(azetidin-1-yl)-1-{[2-(2,6-dioxopiperidin-3-yl)-1-oxo-2,3-dihydro-1H-isoindol-5-yl]methyl}-1H-pyrazolo[3,4-b]pyridin-4-yl]-5-fluoropyridine-3-carbonitrile], the “FAK HiBiT Ymin” value is 19.19. Also, under setting [1], the DC50 stood at 10.3 nM.

For `O=C1CCC(N2Cc3cc(Cn4ncc5c(-c6ncc(C7CC7)cc6F)cc(N6CC(F)C6)nc54)ccc3C2=O)C(=O)N1` (stereo not shown) [Example 86, 3-(5-{[4-(5-cyclopropyl-3-fluoropyridin-2-yl)-6-(3-fluoroazetidin-1-yl)-1H-pyrazolo[3,4-b]pyridin-1-yl]methyl}-1-oxo-2,3-dihydro-1H-isoindol-2-yl)piperidine-2,6-dione], the “FAK HiBiT Ymin” value is listed as 35.59. In addition, under setting [1], the DC50 came to 12.5 nM.

`O=C1CCC(N2Cc3cc(Cn4ncc5c(-c6ncccc6Cl)cc(N6CCC6)nc54)ccc3C2=O)C(=O)N1` (stereo not shown) [Example 88, 3-(5-{[6-(azetidin-1-yl)-4-(3-chloropyridin-2-yl)-1H-pyrazolo[3,4-b]pyridin-1-yl]methyl}-1-oxo-2,3-dihydro-1H-isoindol-2-yl)piperidine-2,6-dione]: the “FAK HiBiT Ymin” value stood at 10.98. Also, the DC50 under setting [1] was 13 nM.

Take `CC(C)Nc1cc(-c2ccc(C#N)cc2F)c2cnn(Cc3ccc4c(c3)CN(C3CCC(=O)NC3=O)C4=O)c2n1` (stereo not shown) [Example 92, 4-(1-{[2-(2,6-dioxopiperidin-3-yl)-1-oxo-2,3-dihydro-1H-isoindol-5-yl]methyl}-6-[(propan-2-yl)amino]-1H-pyrazolo[3,4-b]pyridin-4-yl)-3-fluorobenzonitrile]: the “FAK HiBiT Ymin” value was 26.48. For the same compound, under setting [1], the DC50 is 14.1 nM.

As to `N#Cc1ccc(-c2cc(N3CCC3)nc3c2cnn3Cc2ccc3c(n2)CN(C2CCC(=O)NC2=O)C3=O)c(Cl)c1` (stereo not shown) [Example 101, 4-[6-(azetidin-1-yl)-1-{[6-(2,6-dioxopiperidin-3-yl)-5-oxo-5H,6H,7H-pyrrolo[3,4-b]pyridin-2-yl]methyl}-1H-pyrazolo[3,4-b]pyridin-4-yl]-3-chlorobenzonitrile], the “FAK HiBiT Ymin” value came to 11.17. For the same compound, under setting [1], the DC50 worked out at 29.2 nM.

Turning to `CC(C)Nc1cc(-c2ncc(C#N)cc2Cl)c2cnn(Cc3ccc4c(c3)CN(C3CCC(=O)NC3=O)C4=O)c2n1` (stereo not shown) [Example 103, 5-chloro-6-(1-{[2-(2,6-dioxopiperidin-3-yl)-1-oxo-2,3-dihydro-1H-isoindol-5-yl]methyl}-6-[(propan-2-yl)amino]-1H-pyrazolo[3,4-b]pyridin-4-yl)pyridine-3-carbonitrile], the “FAK HiBiT Ymin” value was found to be 13.98. Besides, the DC50 under setting [1] came out at 30.5 nM.

Regarding `Cc1cccnc1-c1cc(N2CC(F)C2)nc2c1cnn2Cc1ccc2c(c1)CN(C1CCC(=O)NC1=O)C2=O` (stereo not shown) [Example 112, 3-(5-{[6-(3-fluoroazetidin-1-yl)-4-(3-methylpyridin-2-yl)-1H-pyrazolo[3,4-b]pyridin-1-yl]methyl}-1-oxo-2,3-dihydro-1H-isoindol-2-yl)piperidine-2,6-dione], the “FAK HiBiT Ymin” value is listed as 18.51. Besides, the DC50 under setting [1] was 46.7 nM.

Take `CC(C)Nc1cc(-c2ccncc2Cl)c2cnn(Cc3ccc4c(c3)CN(C3CCC(=O)NC3=O)C4=O)c2n1` (stereo not shown) [Example 116, 3-(5-{[4-(3-chloropyridin-4-yl)-6-[(propan-2-yl)amino]-1H-pyrazolo[3,4-b]pyridin-1-yl]methyl}-1-oxo-2,3-dihydro-1H-isoindol-2-yl)piperidine-2,6-dione]: the “FAK HiBiT Ymin” value worked out at 34.23. Further, under setting [1], the DC50 amounted to 67.2 nM.

(Values after patent publication US20260078119A1, “DEGRADER COMPOUNDS AND USES THEREOF” (Bristol-Myers Squibb Company, priority 2024, published 2026).)
